± gives the expanded uncertainty stated by the source.
Legend:
[1] = xn = mol fraction of the nth substance listed; conditions: 101 kPa, Liquid, Vibrating tube method
[2] = 101 kPa, Liquid, Vibrating tube method

CO [methanol] + CC(C)NC(C)C
[1], x2 = 0
Conditions	mass density [kg/m3]
293.15 K	791.72 ± 0.24
298.15 K	787.35 ± 0.24
303.15 K	782.24 ± 0.24
313.15 K	772.73 ± 0.24

CCCCCO [pentan-1-ol] + CC(C)NC(C)C
[1], x2 = 0
Conditions	mass density [kg/m3]
293.15 K	814.8 ± 0.24
298.15 K	810.82 ± 0.24
303.15 K	807.07 ± 0.24
313.15 K	799.4 ± 0.24

CC(C)NC(C)C [diisopropylamine] + CCCCCO
mass density [kg/m3], [1]
Conditions	293.15 K	298.15 K	303.15 K	313.15 K
x1 = 0.0815	809.89 ± 0.24	805.62 ± 0.24	801.64 ± 0.24	794.78 ± 0.24
x1 = 0.16	804.18 ± 0.24	799.78 ± 0.24	795.61 ± 0.24	788.52 ± 0.24
x1 = 0.2392	797.77 ± 0.24	793.23 ± 0.24	788.98 ± 0.24	780.98 ± 0.24
x1 = 0.35	787.88 ± 0.24	783.17 ± 0.24	778.74 ± 0.24	769.75 ± 0.24
x1 = 0.4401	779.23 ± 0.24	774.43 ± 0.24	769.93 ± 0.24	760.48 ± 0.24
x1 = 0.5597	767.21 ± 0.24	762.29 ± 0.24	757.69 ± 0.24	748.46 ± 0.24
x1 = 0.6498	757.9 ± 0.24	752.85 ± 0.24	748.14 ± 0.24	739.55 ± 0.24
x1 = 0.7356	748.9 ± 0.24	743.79 ± 0.24	738.95 ± 0.24	730.94 ± 0.24
x1 = 0.8497	736.82 ± 0.24	731.52 ± 0.24	726.57 ± 0.24	718.73 ± 0.24
x1 = 0.9379	727.48 ± 0.24	722.03 ± 0.24	716.97 ± 0.24	708.08 ± 0.25
x1 = 1	720.89 ± 0.24	715.35 ± 0.24	710.23 ± 0.24	699.71 ± 0.25

CCCO [propan-1-ol] + CC(C)NC(C)C
[1], x2 = 0
Conditions	mass density [kg/m3]
293.15 K	800.03 ± 0.24
298.15 K	797.81 ± 0.24
303.15 K	795.05 ± 0.24
313.15 K	787.95 ± 0.24

CO [methanol]
[2]
Conditions	mass density [kg/m3]
293.15 K	791.72 ± 0.24
298.15 K	787.35 ± 0.24
303.15 K	782.24 ± 0.24
313.15 K	772.73 ± 0.24

CCCCCO [pentan-1-ol]
[2]
Conditions	mass density [kg/m3]
293.15 K	814.8 ± 0.24
298.15 K	810.82 ± 0.24
303.15 K	807.07 ± 0.24
313.15 K	799.4 ± 0.24

CC(C)NC(C)C [diisopropylamine] + CCCCO
mass density [kg/m3], [1]
Conditions	293.15 K	298.15 K	303.15 K	313.15 K
x1 = 0.0815	804.64 ± 0.24	800.71 ± 0.24	796.89 ± 0.24	789.72 ± 0.24
x1 = 0.1611	798.64 ± 0.24	794.65 ± 0.24	790.84 ± 0.24	783.86 ± 0.24
x1 = 0.2404	792.1 ± 0.24	788 ± 0.24	784.11 ± 0.24	777.07 ± 0.24
x1 = 0.3496	782.52 ± 0.24	778.41 ± 0.24	774.3 ± 0.24	767.06 ± 0.24
x1 = 0.44	774.49 ± 0.24	770.21 ± 0.24	766.09 ± 0.24	758.54 ± 0.24
x1 = 0.56	763.71 ± 0.24	759.1 ± 0.24	754.95 ± 0.24	747.2 ± 0.24
x1 = 0.6499	755.59 ± 0.24	750.61 ± 0.24	746.56 ± 0.24	738.57 ± 0.24
x1 = 0.74	747.35 ± 0.24	741.97 ± 0.24	737.86 ± 0.24	729.62 ± 0.24
x1 = 0.8484	736.91 ± 0.24	731.98 ± 0.24	727 ± 0.24	718.21 ± 0.24
x1 = 0.9384	727.64 ± 0.24	721.96 ± 0.24	717.35 ± 0.25	707.61 ± 0.25
x1 = 1	720.89 ± 0.24	715.35 ± 0.24	710.23 ± 0.24	699.71 ± 0.25

CC(C)NC(C)C [diisopropylamine] + CO
mass density [kg/m3], [1]
Conditions	293.15 K	298.15 K	303.15 K	313.15 K
x1 = 0.0808	789.98 ± 0.24	785.35 ± 0.24	779.68 ± 0.24	768.72 ± 0.24
x1 = 0.1599	786.75 ± 0.24	781.66 ± 0.24	776.01 ± 0.24	764.23 ± 0.24
x1 = 0.2399	782.33 ± 0.24	777.02 ± 0.24	771.2 ± 0.24	758.93 ± 0.24
x1 = 0.3477	774.9 ± 0.24	769.38 ± 0.24	763.6 ± 0.24	751.16 ± 0.24
x1 = 0.4444	767.44 ± 0.24	761.76 ± 0.24	756.06 ± 0.24	744.11 ± 0.24
x1 = 0.5563	757.92 ± 0.24	752.29 ± 0.24	746.8 ± 0.24	735.46 ± 0.24
x1 = 0.6507	749.84 ± 0.24	744.22 ± 0.24	738.78 ± 0.24	727.96 ± 0.24
x1 = 0.7388	742.2 ± 0.24	736.62 ± 0.24	731.3 ± 0.24	720.89 ± 0.24
x1 = 0.8482	732.94 ± 0.24	727.37 ± 0.24	722.19 ± 0.24	712.05 ± 0.25
x1 = 0.94	725.56 ± 0.24	719.98 ± 0.24	714.87 ± 0.24	704.62 ± 0.25
x1 = 1	720.89 ± 0.24	715.35 ± 0.24	710.23 ± 0.24	699.71 ± 0.25
